Experimental data published in article PMC5748275, “Novel Aryl Substituted Pyrazoles as Small Molecule Inhibitors of Cytochrome P450 CYP121A1: Synthesis and Antimycobacterial Evaluation” (Journal of Medicinal Chemistry, 2017).

What follows are molecules tested against T1, CYP121A1 (Mycobacterium tuberculosis, UniProt P9WPP7). Conditions: heme Soret peak position, ligand-free to apparent saturation.
T1 construct: made in house
T1 sequence (P9WPP7 whole entry): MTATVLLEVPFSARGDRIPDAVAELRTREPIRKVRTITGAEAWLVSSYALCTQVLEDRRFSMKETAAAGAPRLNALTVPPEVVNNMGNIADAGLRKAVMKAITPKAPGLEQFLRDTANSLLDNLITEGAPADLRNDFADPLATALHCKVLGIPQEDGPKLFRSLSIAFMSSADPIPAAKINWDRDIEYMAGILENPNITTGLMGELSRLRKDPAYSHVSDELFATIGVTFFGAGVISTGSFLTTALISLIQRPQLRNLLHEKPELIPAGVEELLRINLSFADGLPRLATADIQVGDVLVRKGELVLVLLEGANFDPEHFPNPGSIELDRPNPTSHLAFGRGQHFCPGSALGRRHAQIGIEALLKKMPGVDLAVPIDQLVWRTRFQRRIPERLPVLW
Format: binding
Fc1ccc(-c2nn(-c3ccccc3)cc2Cn2cncn2)cc1 [8b, 1-((3-(4-Fluorophenyl)-1-phenyl-1H-pyrazole-4-yl)methyl)-1H-1,2,4-triazole] was tested, and the Soret peak shift was 416–423 nm. Brc1ccc(-c2nn(-c3ccccc3)cc2Cn2ccnc2)cc1 [7f, 4-((1H-Imidazole-1-yl)methyl)-3-(4-bromophenyl)-1-phenyl-1H-pyrazole] was tested, and the Soret peak shift was 416–420 nm. N#Cc1ccc(-c2nn(-c3ccccc3)cc2Cn2ccnc2)cc1 [7h, 4-(4-((1H-Imidazol-1-yl)methyl)-1-phenyl-1H-pyrazol-3-yl)benzonitrile] was tested, and the Soret peak shift was 416–418 nm. For c1ccc(-c2nn(-c3ccccc3)cc2Cn2cncn2)cc1 [8a, 1-((1,3-Diphenyl-1H-pyrazol-4-yl)methyl)-1H-[1,2,4]triazole], the Soret peak shift was 416–422 nm. For Clc1ccc(-c2nn(-c3ccccc3)cc2Cn2ccnc2)cc1 [7c, 4-((1H-Imidazol-1-yl)methyl)-3-(4-chlorophenyl)-1-phenyl-1H-pyrazole], the Soret peak shift was 416–422 nm. With Ic1ccc(-c2nn(-c3ccccc3)cc2Cn2cncn2)cc1 [8g, 1-((3-(4-Iodophenyl)-1-phenyl-1H-pyrazol-4-yl)methyl)-1H-1,2,4-triazole] the Soret peak shift was “no binding”. O=C(NCCn1ccnc1)c1cn(-c2ccccc2)nc1-c1ccc(F)cc1 [13b, N-(2-(1H-Imidazol-1-yl)ethyl)-3-(4-fluorophenyl)-1-phenyl-1H-pyrazole-4-carboxamide] was tested, and the Soret peak shift was “no binding”. In the case of O=C(NCCn1ccnc1)c1cn(-c2ccccc2)nc1-c1ccc(Cl)cc1 [13c, N-(2-(1H-Imidazol-1-yl)ethyl)-3-(4-chlorophenyl)-1-phenyl-1H-pyrazole-4-carboxamide], the Soret peak shift is reported as “no binding”. In the case of Fc1ccc(-c2nn(-c3ccccc3)cc2Cn2ccnc2)cc1 [7b, 4-((1H-Imidazol-1-yl)methyl)-3-(4-fluorophenyl)-1-phenyl-1H-pyrazole], the Soret peak shift is reported as 416–423.5 nm. For c1ccc(-c2nn(-c3ccccc3)cc2Cn2ccnc2)cc1 [7a, (1,3-Diphenyl)-4-((1,3-imidazol-1-yl)methyl)-1H-pyrazole], the Soret peak shift was 416–423.5 nm. In the case of COc1ccc(-c2nn(-c3ccccc3)cc2Cn2ccnc2)cc1 [7e, 4-((1H-Imidazol-1-yl)methyl)-3-(4-methoxyphenyl)-1-phenyl-1H-pyrazole], the Soret peak shift is reported as 416–421 nm. With COc1ccc(-c2nn(-c3ccccc3)cc2Cn2cncn2)cc1 [8e, 1-((3-(4-Methoxyphenyl)-1-phenyl-1H-pyrazol-4-yl)methyl)-1H-1,2,4-triazole] the Soret peak shift was 416–420 nm. In the case of Clc1ccc(-c2nn(-c3ccccc3)cc2Cn2cncn2)cc1 [8c, 1-((3-(4-Chlorophenyl)-1-phenyl-1H-pyrazole-4-yl)methyl)-1H-1,2,4-triazole], the Soret peak shift is reported as 416–421 nm. With Cc1ccc(-c2nn(-c3ccccc3)cc2Cn2ccnc2)cc1 [7d, 4-((1H-Imidazol-1-yl)methyl)-1-phenyl-3-(p-tolyl)-1H-pyrazole] the Soret peak shift was 416–421.5 nm. In the case of Brc1ccc(-c2nn(-c3ccccc3)cc2Cn2cncn2)cc1 [8f, 1-((3-(4-Bromophenyl)-1-phenyl-1H-pyrazol-4-yl)methyl)-1H-1,2,4-triazole], the Soret peak shift is reported as 416–417.5 nm. Cc1ccc(-c2nn(-c3ccccc3)cc2Cn2cncn2)cc1 [8d, 1((1-Phenyl-3-(p-tolyl)-1H-pyrazol-4-yl)methyl)-1H-1,2,4-triazole] was tested, and the Soret peak shift was 416–418 nm. For Ic1ccc(-c2nn(-c3ccccc3)cc2Cn2ccnc2)cc1 [7g, 4-((1H-Imidazole-1-yl)methyl)-3-(4-iodophenyl)-1-phenyl-1H-pyrazole], the Soret peak shift was 416–422 nm. In the case of N#Cc1ccc(-c2nn(-c3ccccc3)cc2Cn2cncn2)cc1 [8h], the Soret peak shift is reported as “no binding”.
